Reference: the supplement of paper PMC7840683
± gives the standard deviation of the averaged measurements.

Tested on: HepaRG
Experiment: LDH release cytotoxicity, % of total lysis control; higher = more cytotoxic
Conditions: 48 h
Outline: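 Single-lot HepaRG cells in collagen I-coated 96-well plates were treated for 48 h in serum-free induction medium containing 0.5% DMSO with test chemicals in eight-point half-log series up to 100 µM. For total lysis, wells received 0.1% Triton X. LDH in 50 µL spent medium was assayed by resorufin fluorescence with CytoTox-ONE. Percent cytotoxicity was normalized to the on-plate vehicle and total lysis controls, with duplicates averaged.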

Row | SMILES | LDH release cytotoxicity (0.03162 µM) [%] | LDH release cytotoxicity (0.1 µM) [%] | LDH release cytotoxicity (0.3162278 µM) [%] | LDH release cytotoxicity (1 µM) [%] | LDH release cytotoxicity (3.16228 µM) [%] | LDH release cytotoxicity (10 µM) [%] | LDH release cytotoxicity (31.6228 µM) [%] | LDH release cytotoxicity (100 µM) [%] | further results
1 | CCCCCCCCO [1-Octanol] | -0.769 ± 1 | -1.52 ± 0.36 | -0.614 ± 0.069 | -1.76 ± 0.5 | -2.15 ± 1.1 | -1.49 ± 0.68 | 1.06 ± 0.25 | 2.86 ± 2.5 | –
2 | CCc1ccc(C(=O)NN(C(=O)c2cc(C)cc(C)c2)C(C)(C)C)cc1 [Tebufenozide] | -0.939 ± 1.3 | 0.194 ± 0.33 | -0.662 ± 1.2 | -0.0494 ± 1.4 | -0.0064 ± 0.51 | 0.106 ± 0.49 | 0.645 ± 0.25 | 11.3 ± 0.39 | –
3 | CCCCCCCCN(C)CCCCCCCC [N-Methyldioctylamine] | -0.874 ± 0.42 | -1.29 ± 0.46 | -1.43 ± 0.024 | -1.23 ± 0.32 | -0.708 ± 0.21 | -1.14 ± 0.69 | -0.369 ± 0.46 | 0.33 ± 0.63 | –
4 | C=C(C)C(=O)OCCC(F)(F)C(F)(F)C(F)(F)C(F)(F)C(F)(F)C(F)(F)F [6:2 Fluorotelomer methacrylate] | -0.461 ± 0.18 | 0.735 ± 1.2 | 0.518 ± 0.41 | -0.0542 ± 0.29 | 0.38 ± 0.35 | 0.535 ± 0.98 | 0.834 ± 0.34 | 1.55 ± 0.43 | –
5 | CCCCCCCCCC [Decane] | – | -2.33 ± 0.84 | – | -2.73 ± 0.13 | -3.64 ± 0.16 | -2.67 ± 0.26 | -1.91 ± 0.28 | 0.361 ± 0.12 | LDH release cytotoxicity (0.031623 µM): -0.647 ± 0.6%; LDH release cytotoxicity (0.316228 µM): -2.41 ± 0.87%
6 | CCCOc1ccc(S(=O)(=O)N2CCN(CC)CC2)cc1-c1nc2c(CC)n(Cc3ccccn3)nc2c(=O)[nH]1 | -0.95 ± 0.39 | -1.66 ± 0.39 | -1.8 ± 0.68 | -1.82 ± 0.63 | -1.41 ± 0.12 | -1.21 ± 0.066 | -0.893 ± 0.14 | 5.44 ± 2.7 | –
7 | Cc1cc(-c2ccc(N)c(C)c2)ccc1N [3,3'-Dimethylbenzidine] | -0.774 ± 1.1 | -1.43 ± 0.33 | -1.35 ± 0.3 | -1.27 ± 0.083 | -0.397 ± 0.66 | -0.218 ± 0.26 | 2.22 ± 0.32 | 5.88 ± 1.2 | –
8 | Cc1nc(-c2ccccn2)ncc1C(=O)Nn1cc(C)c2cc(F)ccc21 | – | – | – | – | – | – | – | – | LDH release cytotoxicity (0.0295673 µM): -0.89 ± 0.73%; LDH release cytotoxicity (0.0935 µM): -1.26 ± 0.34%; LDH release cytotoxicity (0.295673 µM): -0.0753 ± 0.68%; LDH release cytotoxicity (0.935 µM): -1.71 ± 0.6%; LDH release cytotoxicity (2.95673 µM): -2.8 ± 0.042%; LDH release cytotoxicity (9.35 µM): -2.48 ± 0.043%; LDH release cytotoxicity (29.5673 µM): -2.73 ± 0.47%; LDH release cytotoxicity (93.5 µM): -1.5 ± 0.84%
9 | Cc1c(COC(=O)C2C(C=C(Cl)C(F)(F)F)C2(C)C)cccc1-c1ccccc1 (configuration not stated) [Bifenthrin] | -1.61 ± 1.9 | -2.22 ± 0.62 | -2.26 ± 0.28 | -2.12 ± 0.18 | -1.77 ± 0.75 | -1.98 ± 0.032 | -2.13 ± 0.62 | -0.496 ± 0.96 | –
10 | CC(C)C1(C)N=C(c2ncccc2C(=O)O)NC1=O (configuration not stated) [Imazapyr] | -1.83 ± 0.41 | -1.02 ± 0.061 | -1.62 ± 0.63 | -0.872 ± 0.078 | -0.897 ± 0.67 | -1.03 ± 0.39 | -0.823 ± 0.31 | 0.363 ± 0.9 | –
11 | CC(C)(OO)c1ccccc1 [Cumene hydroperoxide] | -1.39 ± 0.22 | 0.0774 ± 0.7 | -0.106 ± 0.65 | -0.2 ± 0.59 | 0.797 ± 0.57 | 0.939 ± 1.3 | 0.476 ± 0.51 | 1.68 ± 0.062 | –
12 | Clc1ccccc1-c1nnc(-c2ccccc2Cl)nn1 [Clofentezine] | -1.43 ± 0.094 | -0.835 ± 0.41 | -0.246 ± 0.27 | -1.9 ± 0.72 | -0.967 ± 0.31 | -1.22 ± 0.43 | -0.912 ± 0.23 | 0.757 ± 0.29 | –
13 | CN/C(=N\[N+](=O)[O-])NCc1cnc(Cl)s1 [Clothianidin] | -0.975 ± 0.7 | -0.34 ± 0.13 | -1.12 ± 0.038 | -0.952 ± 0.36 | -0.743 ± 0.035 | -0.23 ± 0.17 | -0.557 ± 0.27 | 0.586 ± 0.26 | –
14 | COc1cc2c(c(OC)c1OC)-c1ccc(OC)c(=O)cc1C(NC(C)=O)CC2 (configuration not stated) [Colchicine] | – | 7.47 ± 1.3 | – | 10.1 ± 2.2 | 11.5 ± 4.3 | 10.1 ± 0.93 | 7.72 ± 1.5 | 5.064 ± 0.022 | LDH release cytotoxicity (0.031623 µM): 2.9 ± 1.9%; LDH release cytotoxicity (0.316228 µM): 10.8 ± 1.7%
15 | CC1=NC(=O)N(C(C)(C)C)C(=O)C1Cl (configuration not stated) [Terbacil] | – | -3.63 ± 0.95 | – | -3.38 ± 0.33 | -2.68 ± 1.1 | -2.77 ± 0.39 | -1.74 ± 0.92 | 2.1 ± 0.37 | LDH release cytotoxicity (0.031623 µM): -1.65 ± 0.11%; LDH release cytotoxicity (0.316228 µM): -2.5 ± 0.94%
16 | CCCC1COC(Cn2cncn2)(c2ccc(Cl)cc2Cl)O1 (configuration not stated) [Propiconazole] | -1.15 ± 0.41 | -1.4 ± 0.43 | -1.43 ± 0.71 | -0.956 ± 0.14 | -0.902 ± 0.17 | -0.927 ± 1 | 12.7 ± 3.1 | 26.8 ± 4 | –
17 | CN(C)C(=O)Cl [Dimethylcarbamoyl chloride] | -1.3 ± 0.049 | -0.716 ± 0.62 | -0.579 ± 0.073 | -0.789 ± 0.59 | -0.264 ± 0.42 | -0.4 ± 0.096 | -0.611 ± 0.2 | 0.647 ± 0.56 | –
18 | COC(=O)CCCC(=O)OC [Dimethyl glutarate] | -0.9 ± 1.2 | -1.35 ± 0.52 | -1.16 ± 1.5 | -1.42 ± 0.98 | -1.03 ± 1.1 | -1.13 ± 0.84 | -1.36 ± 0.88 | 3.2 ± 2.1 | –
19 | CCOc1cc(C(C)(C)C)ccc1C1COC(c2c(F)cccc2F)=N1 (configuration not stated) [Etoxazole] | – | – | – | – | – | – | – | – | LDH release cytotoxicity (0.020871 µM): -3.18 ± 0.75%; LDH release cytotoxicity (0.066 µM): -1.79 ± 0.038%; LDH release cytotoxicity (0.20871 µM): -2.56 ± 0.37%; LDH release cytotoxicity (0.66 µM): -3.05 ± 0.51%; LDH release cytotoxicity (2.0871 µM): -2.64 ± 0.86%; LDH release cytotoxicity (6.6 µM): -2.88 ± 0.43%; LDH release cytotoxicity (20.871 µM): -2.37 ± 0.075%; LDH release cytotoxicity (66 µM): 5.91 ± 0.27%
